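These data come from cells grown in 96-well plates and exposed to compound for 48 hours at five concentrations. GI50 is the concentration that inhibits growth by half. TGI marks complete inhibition of growth.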
Legend:
Assay in all cases: NCI anticancer screen, dose series, 48 h; in the data active means GI50 below about 0.43 µM; inactive means the rest
SK-MEL-28 melanoma = test system: SK-MEL-28 melanoma
HOP-62 NSCLC = test system: HOP-62 NSCLC
TK-10 renal = test system: TK-10 renal
MOLT-4 leukemia = test system: MOLT-4 leukemia
OVCAR-5 ovarian = test system: OVCAR-5 ovarian
UO-31 renal = test system: UO-31 renal
SF-295 CNS = test system: SF-295 CNS
UACC-62 melanoma = test system: UACC-62 melanoma
KM12 colon = test system: KM12 colon
SR leukemia = test system: SR leukemia
SK-MEL-2 melanoma = test system: SK-MEL-2 melanoma
MALME-3M melanoma = test system: MALME-3M melanoma
BT-549 breast = test system: BT-549 breast
NCI/ADR-RES ovarian = test system: NCI/ADR-RES ovarian
NCI-H226 lung = test system: NCI-H226 lung
HOP-92 NSCLC = test system: HOP-92 NSCLC
M14 melanoma = test system: M14 melanoma
UACC-257 melanoma = test system: UACC-257 melanoma
SW-620 colon = test system: SW-620 colon
U251 CNS = test system: U251 CNS
T-47D breast = test system: T-47D breast
A498 renal = test system: A498 renal
OVCAR-4 ovarian = test system: OVCAR-4 ovarian
SK-OV-3 ovarian = test system: SK-OV-3 ovarian
SNB-19 CNS = test system: SNB-19 CNS
786-0 renal = test system: 786-0 renal
NCI-H522 lung = test system: NCI-H522 lung
PC-3 prostate = test system: PC-3 prostate
HS 578T breast = test system: HS 578T breast
CAKI-1 renal = test system: CAKI-1 renal
RXF 393 renal = test system: RXF 393 renal
RPMI-8226 leukemia = test system: RPMI-8226 leukemia
HCT-15 colon = test system: HCT-15 colon
MDA-MB-435 = test system: MDA-MB-435
DU-145 prostate = test system: DU-145 prostate
MCF7 breast = test system: MCF7 breast
HCT-116 colon = test system: HCT-116 colon
NCI-H23 lung = test system: NCI-H23 lung
NCI-H460 lung = test system: NCI-H460 lung
HT29 colon = test system: HT29 colon
A549 NSCLC = test system: A549 NSCLC
HL-60(TB) leukemia = test system: HL-60(TB) leukemia
ACHN renal = test system: ACHN renal
HCC-2998 colon = test system: HCC-2998 colon
K-562 leukemia = test system: K-562 leukemia
OVCAR-8 ovarian = test system: OVCAR-8 ovarian
OVCAR-3 ovarian = test system: OVCAR-3 ovarian
LOX IMVI melanoma = test system: LOX IMVI melanoma
CCRF-CEM leukemia = test system: CCRF-CEM leukemia
EKVX NSCLC = test system: EKVX NSCLC
MDA-MB-231 breast = test system: MDA-MB-231 breast
SN12C renal = test system: SN12C renal
SF-539 CNS = test system: SF-539 CNS
SK-MEL-5 melanoma = test system: SK-MEL-5 melanoma
IGROV1 ovarian = test system: IGROV1 ovarian
COLO 205 colon = test system: COLO 205 colon
SNB-75 CNS = test system: SNB-75 CNS
SF-268 CNS = test system: SF-268 CNS

Cc1csc(-c2nnc(Nc3ccc(Oc4ncccc4-c4ccnc(N)n4)cc3)c3ccccc23)c1
> 30.2 µM: TGI (HCC-2998 colon)
> 100 µM: TGI (SK-MEL-28 melanoma) | TGI (HOP-62 NSCLC) | TGI (TK-10 renal) | TGI (MOLT-4 leukemia) | TGI (OVCAR-5 ovarian) | TGI (UO-31 renal) | TGI (SF-295 CNS) | TGI (UACC-62 melanoma) | TGI (KM12 colon) | TGI (SR leukemia) | TGI (MALME-3M melanoma) | TGI (BT-549 breast) | TGI (NCI/ADR-RES ovarian) | TGI (NCI-H226 lung) | TGI (HOP-92 NSCLC) | TGI (M14 melanoma) | TGI (UACC-257 melanoma) | TGI (SW-620 colon) | TGI (U251 CNS) | TGI (T-47D breast) | TGI (A498 renal) | TGI (OVCAR-4 ovarian) | TGI (SK-OV-3 ovarian) | TGI (SNB-19 CNS) | TGI (786-0 renal) | TGI (PC-3 prostate) | TGI (HS 578T breast) | TGI (CAKI-1 renal) | TGI (RXF 393 renal) | TGI (RPMI-8226 leukemia) | TGI (HCT-15 colon) | TGI (MDA-MB-435) | TGI (DU-145 prostate) | TGI (MCF7 breast) | TGI (HCT-116 colon) | TGI (NCI-H23 lung) | TGI (NCI-H460 lung) | TGI (HT29 colon) | TGI (A549 NSCLC) | TGI (HL-60(TB) leukemia) | TGI (ACHN renal) | TGI (K-562 leukemia) | TGI (OVCAR-8 ovarian) | TGI (OVCAR-3 ovarian) | TGI (LOX IMVI melanoma) | TGI (CCRF-CEM leukemia) | TGI (EKVX NSCLC) | TGI (MDA-MB-231 breast) | TGI (SN12C renal) | TGI (SF-539 CNS) | TGI (SK-MEL-5 melanoma) | TGI (IGROV1 ovarian)
> 26.9 µM: TGI (SK-MEL-2 melanoma)
active: GI50 (SR leukemia) < 0.01 µM | GI50 (NCI/ADR-RES ovarian) 0.355 µM | GI50 (MCF7 breast) 0.13 µM | GI50 (NCI-H460 lung) 0.0214 µM | GI50 (CCRF-CEM leukemia) 0.234 µM
inactive: GI50 (SK-MEL-28 melanoma) 2.1 µM | GI50 (HOP-62 NSCLC) 4.4 µM | GI50 (TK-10 renal) > 100 µM | GI50 (MOLT-4 leukemia) 3.34 µM | GI50 (OVCAR-5 ovarian) > 100 µM | GI50 (SF-295 CNS) 2.98 µM | GI50 (UACC-62 melanoma) 0.767 µM | GI50 (KM12 colon) 2.41 µM | GI50 (SK-MEL-2 melanoma) 2.71 µM | GI50 (MALME-3M melanoma) 1.9 µM | GI50 (BT-549 breast) > 100 µM | GI50 (NCI-H226 lung) > 63.8 µM | GI50 (HOP-92 NSCLC) > 100 µM | GI50 (M14 melanoma) 1.51 µM | GI50 (SW-620 colon) 0.651 µM | GI50 (U251 CNS) > 100 µM | GI50 (T-47D breast) 5 µM | GI50 (A498 renal) > 100 µM | GI50 (OVCAR-4 ovarian) 6.59 µM | GI50 (SK-OV-3 ovarian) > 100 µM | GI50 (SNB-19 CNS) > 100 µM | GI50 (786-0 renal) > 100 µM | GI50 (NCI-H522 lung) 5.31 µM | GI50 (PC-3 prostate) > 27.1 µM | GI50 (HS 578T breast) > 100 µM | GI50 (RXF 393 renal) 1.51 µM | GI50 (RPMI-8226 leukemia) 3.05 µM | GI50 (HCT-15 colon) 1.78 µM | GI50 (MDA-MB-435) 2.45 µM | GI50 (DU-145 prostate) 4.61 µM | GI50 (HCT-116 colon) 1.89 µM | GI50 (NCI-H23 lung) 2.9 µM | GI50 (HT29 colon) 0.558 µM | GI50 (A549 NSCLC) 1.95 µM | GI50 (HL-60(TB) leukemia) 2.16 µM | GI50 (ACHN renal) 2.11 µM | GI50 (HCC-2998 colon) 2.54 µM | GI50 (K-562 leukemia) 3.15 µM | GI50 (LOX IMVI melanoma) 0.433 µM | GI50 (EKVX NSCLC) > 100 µM | GI50 (MDA-MB-231 breast) 4.32 µM | GI50 (SN12C renal) 2.54 µM | GI50 (SF-539 CNS) > 100 µM | GI50 (SK-MEL-5 melanoma) 71.5 µM | GI50 (IGROV1 ovarian) 3.35 µM
> 69.1 µM: TGI (NCI-H522 lung)

Nc1nc(-c2ccccc2)nc2oc(-c3cccs3)nc12
> 100 µM: TGI (SK-MEL-28 melanoma) | TGI (HOP-62 NSCLC) | TGI (TK-10 renal) | TGI (MOLT-4 leukemia) | TGI (OVCAR-5 ovarian) | TGI (COLO 205 colon) | TGI (UO-31 renal) | TGI (SF-295 CNS) | TGI (UACC-62 melanoma) | TGI (KM12 colon) | TGI (SR leukemia) | TGI (SK-MEL-2 melanoma) | TGI (BT-549 breast) | TGI (NCI/ADR-RES ovarian) | TGI (NCI-H226 lung) | TGI (HOP-92 NSCLC) | TGI (M14 melanoma) | TGI (UACC-257 melanoma) | TGI (SW-620 colon) | TGI (U251 CNS) | TGI (T-47D breast) | TGI (A498 renal) | TGI (SNB-19 CNS) | TGI (786-0 renal) | TGI (NCI-H522 lung) | TGI (PC-3 prostate) | TGI (HS 578T breast) | TGI (SNB-75 CNS) | TGI (RXF 393 renal) | TGI (RPMI-8226 leukemia) | TGI (HCT-15 colon) | TGI (MDA-MB-435) | TGI (DU-145 prostate) | TGI (MCF7 breast) | TGI (HCT-116 colon) | TGI (NCI-H23 lung) | TGI (NCI-H460 lung) | TGI (HT29 colon) | TGI (A549 NSCLC) | TGI (HL-60(TB) leukemia) | TGI (ACHN renal) | TGI (HCC-2998 colon) | TGI (K-562 leukemia) | TGI (OVCAR-8 ovarian) | TGI (OVCAR-3 ovarian) | TGI (LOX IMVI melanoma) | TGI (CCRF-CEM leukemia) | TGI (EKVX NSCLC) | TGI (SF-268 CNS) | TGI (MDA-MB-231 breast) | TGI (SN12C renal) | TGI (SF-539 CNS) | TGI (SK-MEL-5 melanoma) | TGI (IGROV1 ovarian)

Source: PubChem BioAssay (NCI)
